Results from US9357792B2, “Fermented cereal product obtained by fermentation of rye bran with a Lactobacillus curvatus strain” (priority 2001, dated 2016).

Legend:
[1] = system: H. pylori CCUG17875 binding to the Lewis b antigen; experiment: RIA inhibition assay: H. pylori pre-treated with product, then binding to 125I-labeled Lewis b conjugate; set-up: species or system Helicobacter pylori; settings: pretreated with 2 mM for 1 hour; FIG. 1B
[2] = system: H. pylori CCUG17875 adherence to human gastric mucosa; experiment: H. pylori adherence in situ to histo-sections of human gastric mucosa; format: cell-based, Helicobacter pylori; settings: after pretreatment with 2 mM
Description: Pretreatment of strain CCUG 17875 with soluble Lewis b antigen, with L. curvatus fermented rye bran and with ferric quinate is shown. Here, bacterial binding to 10 different gastric surface epithelium regions were estimated (value p<0.001(***), value p<0.01(**), value p<0.05(*)).
Bacterial adherence in situ was performed as described by Falk et al., 1993. Human biopsy samples of healthy gastric tissue were obtained from the Division for Gastroenterology, Norrland University Hospital, Umea, Sweden. The biopsies were taken from the antrum part of the stomach, then they were fixed in 4% buffered formalin and finally they were embedded in paraffin wax. Sections were stained with hematoxylin and eosin following standard procedures. H. pylori were first labeled with FITC, and bacterial adherence to the gastric mucous was then analyzed by the ability of L. curvatus-fermented rye-bran to inhibit bacterial adherence to re-hydrated histo-sections of human gastric epithelial cells in situ. For comparative inhibition analyzes, H. pylori was pre-incubated with Lewis b conjugate (10 μg/mL), and fermented rye-bran (1 mL) for 1 hour at room temperature. Then, as described above, the H. pylori bacterial cells were applied to the histo-sections. […]

Row | Compound | inhibition of H. pylori binding to the Lewis b antigen [1] | adherence of strain CCUG17875 to the gastric tissue section epithelium [2]
1 | O=C(O)[C@]1(O)C[C@@H](O)[C@@H](O)[C@H](O)C1 [Quinic Acid, reference compound] | no inhibition | 
2 | Ferric Quinate | 69% | similarly much reduced
